Assay results published in patent US10538535B2, “Antitumoral compounds” (priority 2017, dated 2020).
Like-named read-outs stand apart in the source and are kept apart here.

Experiments:
A549 cells = experiment: cells; settings: for CC50: read-out: LC50
From the text: (§1) The aim of this assay is to evaluate the in vitro cytostatic (ability to delay or arrest tumor cell growth) or cytotoxic (ability to kill tumor cells) activity of the samples being tested.
(§2) A colorimetric assay, using sulforhodamine B (SRB) reaction has been adapted to provide a quantitative measurement of cell growth and viability (following the technique described by Skehan et al. J. Natl. Cancer Inst. 1990, 82, 1107-1112). Another colorimetric assay based on 3-(4,5-Dimethylthiazol-2-yl)-2,5-diphenyltetrazolium bromide (MTT) reduction to a purple formazan has been also used to assess the antiproliferative activity (following the technique described by Mosmann et al. J. Immunol. Meth. 1983, 65, 55-63).
(§3) These forms of assays employ 96-well cell culture microplates following the standards of the American National Standards Institute and the Society for Laboratory Automation and Screening (ANSI SLAS 1-2004 (R2012) Oct. 12, 2011. All the cell lines used in this study were obtained from the American Type Culture Collection (ATCC) and derive from different types of human cancer.
(§4) A549, HT29, MDA-MB-231 and PSN1 cells were maintained in Dulbecco's Modified Eagle Medium (DMEM) while PC-3 and 22Rv1 cells were maintained in Roswell Park Memorial Institute Medium (RPMI). All cell lines were supplemented with 10% Fetal Bovine Serum (FBS), 2 mM L-glutamine, 100 U/mL penicillin, and 100 […] at 37° C., 5% CO2 and 98% humidity. For the experiments, cells were harvested from subconfluent cultures using trypsinization and resuspended in fresh medium before counting and plating.
(§5) A549, HT29, MDA-MB-231 and PSN1 cells were seeded in 96 well microtiter plates, at 5000 cells per well in aliquots of 150 μL, and allowed to attach to the plate surface for 18 hours (overnight) in drug free medium. After that, one control (untreated) plate of each cell line was fixed (as described below) and used for time zero reference value. Culture plates were then treated with test compounds (50 μL aliquots of 4× stock solutions in complete culture medium plus 4% DMSO) using ten 2/5 serial dilutions (concentrations ranging from 10 to 0.003 μg/mL) and triplicate cultures (1% final concentration in DMSO). After 72 hours treatment, the antitumor effect was measured by using the SRB methodology: Briefly, cells were washed twice with PBS, fixed for 15 min in 1% glutaraldehyde solution at room temperature, rinsed twice in PBS, and stained in 0.4% SRB solution for 30 min at room temperature. Cells were then rinsed several times with 1% acetic acid solution and air-dried at room temperature.
(§6) Effects on cell growth and survival were estimated by applying the NCI algorithm (Boyd M R and Paull K D. Drug Dev. Res. 1995, 34, 91-104). The values obtained in triplicate cultures were fitted by nonlinear regression to a four-parameters logistic curve by nonlinear regression analysis.

HT29 cells = experiment: cells; settings: for CC50: read-out: LC50
From the text: as §1, §2, §3, §4, §5, §6

PC-3 tumors = settings: 12-R 0.05 mg/kg
From the text: In this model, instead of male, female animals were used because PC-3 growth is not hormone dependant.

PSN1 cells = experiment: cells; settings: for CC50: read-out: LC50
From the text: as §1, §2, §3, §4, §5, §6

MDA-MB-231 cells = experiment: cells; settings: for CC50: read-out: LC50
From the text: as §1, §2, §3, §4, §5, §6

H82 tumors = experiment: In vivo xenograft, human lung (SCLC) H82; settings: iv weekly, 47-R 0.1 mg/Kg, Compound D 0.5 mg/Kg
Protocol: Female athymic nu/nu mice (Harlan Laboratories Models, S. L. Barcelona, Spain or Envigo, Spain) were utilized for all experiments. Animal were housed in individually ventilated cages Sealsafe® Plus, Techniplast S.P.A.), up to ten per cage on a 12-hour light-dark cycle at 21-23° C. and 40-60% humidity. Mice were allowed free access to irradiated standard rodent diet (Tecklad 2914C) and sterilized water. Animals were acclimated for at least 5 days prior to tumor implantation with a tumor cell suspension.
H82 cells were grown as a suspension and maintained by addition of fresh medium, as the cell density increases, every 2 to 3 days. Every week, culture was reestablished by centrifugation of the suspension with subsequent resuspension in fresh medium at a concentration of 1×10^5 cell/ml. Animals were subcutaneously implanted (on the right flank using 26 G needle and a 1 cc syringe) at 4-6 weeks of age with 5×10^6 H82 cells, suspended in 0.05 mL of a solution consisting of 50% Matrigel® (Corning Incorporated Life Sciences) and 50% medium without serum or antibiotics.
Treatment tolerability was assessed by monitoring body weight evolution, clinical signs of systemic toxicity, as well as evidences of local damage in the injection site.
In xenograft studies with other cell lines: • Tumor volume was calculated using the equation (a·b^2)/2, where a: length (longest diameter) and b: width (shortest diameter) were measured in mm by using digital caliper (Fowler Sylvac, S235PAT).
Treatments producing >20% lethality and/or 20% net body weight loss were considered toxic.
Tables and figures summarize the data obtained from complete experimental groups, i.e. those groups keeping the initial number of animals, n=8-10.

H526 tumors = experiment: In vivo xenograft, human lung (SCLC) H526; settings: iv weekly, 47-R 0.1 mg/Kg, Compound D 0.5 mg/Kg
[1] = MDA-MB-231, 72 hours treatment, SRB

COc1c(C)cc2c(c1O)[C@@H]1[C@@H]3[C@@H]4SC[C@]5(N[C@H](CN)Cc6c5[nH]c5ccccc65)C(=O)OC[C@@H](c5c6c(c(C)c(OC(C)=O)c54)OCO6)N3[C@@H](O)[C@H](C2)N1C [Compound 12-S]
CC50 (A549 cells; Homo sapiens, A549, 72 h): > 128 nM | CC50 (HT29 cells; Homo sapiens, HT-29, 72 h): > 128 nM | Median Tumor Volume (PC-3 tumors; Day 0, iv Days 0, 7 and 14, 12-S […]): 128.0 mm^3 | Median Tumor Volume (PC-3 tumors; Day 2, iv Days 0, 7 and 14, 12-S […]): 141.5 mm^3 | Median Tumor Volume (PC-3 tumors; Day 4, iv Days 0, 7 and 14, 12-S […]): 143.7 mm^3 | Median Tumor Volume (PC-3 tumors; Day 7, iv Days 0, 7 and 14, 12-S […]): 183.9 mm^3 | Median Tumor Volume (PC-3 tumors; Day 11, iv Days 0, 7 and 14, 12-S […]): 208.1 mm^3 | Median Tumor Volume (PC-3 tumors; Day 14, iv Days 0, 7 and 14, 12-S […]): 270.7 mm^3 | Median Tumor Volume (PC-3 tumors; Day 16, iv Days 0, 7 and 14, 12-S […]): 286.3 mm^3 | Median Tumor Volume (PC-3 tumors; Day 18, iv Days 0, 7 and 14, 12-S […]): 336.1 mm^3 | Median Tumor Volume (PC-3 tumors; Day 21, iv Days 0, 7 and 14, 12-S […]): 357.1 mm^3 | Median Tumor Volume (PC-3 tumors; Day 23, iv Days 0, 7 and 14, 12-S […]): 400.8 mm^3 | Median Tumor Volume (PC-3 tumors; Day 25, iv Days 0, 7 and 14, 12-S […]): 443.6 mm^3 | Median Tumor Volume (PC-3 tumors; Day 29, iv Days 0, 7 and 14, 12-S […]): 523.4 mm^3 | Median Tumor Volume (PC-3 tumors; Day 32, iv Days 0, 7 and 14, 12-S […]): 652.6 mm^3 | Median Tumor Volume (PC-3 tumors; Day 35, iv Days 0, 7 and 14, 12-S […]): 689.7 mm^3 | Median Tumor Volume (PC-3 tumors; Day 37, iv Days 0, 7 and 14, 12-S […]): 692.2 mm^3 | Median Tumor Volume (PC-3 tumors; Day 39, iv Days 0, 7 and 14, 12-S […]): 726.9 mm^3 | Median Tumor Volume (PC-3 tumors; Day 42, iv Days 0, 7 and 14, 12-S […]): 823.7 mm^3 | Median Tumor Volume (PC-3 tumors; Day 44, iv Days 0, 7 and 14, 12-S […]): 864.2 mm^3 | Median Tumor Volume (PC-3 tumors; Day 46, iv Days 0, 7 and 14, 12-S […]): 1182.8 mm^3 | Median Tumor Volume (PC-3 tumors; Day 49, iv Days 0, 7 and 14, 12-S […]): 1219.2 mm^3 | Median Tumor Volume (PC-3 tumors; Day 51, iv Days 0, 7 and 14, 12-S […]): 1331.9 mm^3 | Median Tumor Volume (PC-3 tumors; Day 56, iv Days 0, 7 and 14, 12-S […]): 1335.2 mm^3

COc1c(C)cc2c(c1O)[C@@H]1[C@@H]3[C@@H]4SC[C@]5(N[C@H](CO)Cc6c5oc5ccccc65)C(=O)OC[C@@H](c5c6c(c(C)c(OC(C)=O)c54)OCO6)N3[C@@H](C#N)[C@H](C2)N1C [Compound 38-S]
GI50 (PSN1 cells; Homo sapiens, PSN1, 72 h, PSN1, 72 hours treatment, SRB): 5.03 nM | CC50 (PSN1 cells; Homo sapiens, PSN1, 72 h): 15.1 nM | IC (TGI) (PSN1 cells; Homo sapiens, PSN1, 72 h, read-out: TGI): 8.18 nM | GI50 (MDA-MB-231 cells; Homo sapiens, MDA-MB-231, 72 h): 2.52 nM | CC50 (MDA-MB-231 cells; Homo sapiens, MDA-MB-231, 72 h): 7.8 nM | IC (TGI) (MDA-MB-231 cells; Homo sapiens, MDA-MB-231, 72 h, read-out: TGI): 4.28 nM | GI50 (A549 cells; Homo sapiens, A549, 72 h): 8.05 nM | CC50 (A549 cells; Homo sapiens, A549, 72 h): 9.44 nM | IC (TGI) (A549 cells; Homo sapiens, A549, 72 h, read-out: TGI): 8.55 nM | GI50 (HT29 cells; Homo sapiens, HT-29, 72 h): 4.53 nM | CC50 (HT29 cells; Homo sapiens, HT-29, 72 h): > 126 nM | IC (TGI) (HT29 cells; Homo sapiens, HT-29, 72 h, read-out: TGI): 7.05 nM

COc1c(C)cc2c(c1O)[C@@H]1[C@@H]3[C@@H]4SC[C@]5(N[C@@H](CN)Cc6c5oc5ccccc65)C(=O)OC[C@@H](c5c6c(c(C)c(OC(C)=O)c54)OCO6)N3[C@@H](O)[C@H](C2)N1C [Compound 47-R]
CC50 (PSN1 cells; Homo sapiens, PSN1, 72 h): 3.31 nM | CC50 (MDA-MB-231 cells; Homo sapiens, MDA-MB-231, 72 h): 2.55 nM | CC50 (HT29 cells; Homo sapiens, HT-29, 72 h): > 127 nM | Median Tumor Volume (H82 tumors; Table 57, Day 0): 169.0 mm^3 | Median Tumor Volume (H82 tumors; Table 57, Day 2): 371.6 mm^3 | Median Tumor Volume (H82 tumors; Table 57, Day 5): 888.8 mm^3 | Median Tumor Volume (H82 tumors; Table 57, Day 7): 1314.2 mm^3 | Median Tumor Volume (H82 tumors; Table 57, Day 9): 1811.0 mm^3 | Median Tumor Volume (H82 tumors; Table 57, Day 12): 2055.4 mm^3 | Median Tumor Volume (H526 tumors; Table 56, Day 0): 211.5 mm^3 | Median Tumor Volume (H526 tumors; Table 56, Day 2): 367.9 mm^3 | Median Tumor Volume (H526 tumors; Table 56, Day 4): 583.7 mm^3 | Median Tumor Volume (H526 tumors; Table 56, Day 7): 941.7 mm^3 | Median Tumor Volume (H526 tumors; Table 56, Day 9): 1305.2 mm^3 | Median Tumor Volume (H526 tumors; Table 56, Day 11): 1484.7 mm^3 | Median Tumor Volume (H526 tumors; Table 56, Day 14): 2025.0 mm^3

COc1c(C)cc2c(c1O)[C@@H]1[C@@H]3[C@@H]4SC[C@]5(N[C@H](CN)Cc6c5oc5ccccc65)C(=O)OC[C@@H](c5c6c(c(C)c(OC(C)=O)c54)OCO6)N3[C@@H](O)[C@H](C2)N1C [Compound 47-S]
CC50 (PSN1 cells; Homo sapiens, PSN1, 72 h): 12.7 nM | CC50 (MDA-MB-231 cells; Homo sapiens, MDA-MB-231, 72 h): 16.6 nM | CC50 (A549 cells; Homo sapiens, A549, 72 h): > 127 nM | CC50 (HT29 cells; Homo sapiens, HT-29, 72 h): > 127 nM

COc1ccc2[nH]c3c(c2c1)CCNC31CSC2c3c(OC(C)=O)c(C)c4c(c3C(COC1=O)N1C(C#N)C3Cc5cc(C)c(OC)c(O)c5C(C21)N3C)OCO4 (centres unmarked) [E]
GI50 (PSN1 cells; PSN1, 72 hours treatment, SRB): 2.77 nM | TGI (PSN1 cells; PSN1, 72 hours treatment, SRB): 4.53E−09 Molar | CC50 (PSN1 cells; PSN1, 72 hours treatment, SRB): 8.94 nM | GI50 (MDA-MB-231 cells; [1]): 2.27 nM | TGI (MDA-MB-231 cells; [1]): 3.78E−09 Molar | CC50 (MDA-MB-231 cells; [1]): 7.43 nM | GI50 (A549 cells; A549, 72 hours treatment, SRB): 3.28 nM | TGI (A549 cells; A549, 72 hours treatment, SRB): 3.40E−09 Molar | CC50 (A549 cells; A549, 72 hours treatment, SRB): 4.41 nM | GI50 (HT29 cells; HT29, 72 hours treatment, SRB): 3.15 nM | TGI (HT29 cells; HT29, 72 hours treatment, SRB): 3.40E−09 Molar | CC50 (HT29 cells; HT29, 72 hours treatment, SRB): > 126 nM
